{
  "source": "patent US7501395B2",
  "about": "“Method of screening for antianxiety drugs” (Eisai R & D Management Co., Ltd., priority 2005, dated 2009)",
  "key": {"WISTAR rats": {"test_system": "WISTAR rats", "test": "elevated plus maze test, orexin-A (Example 1)", "format": "in vivo", "conditions": "intracerebroventricular administration to rats, 0.1 to 3.0 nmol, 15 minutes before test; 5 min test", "protocol": "WISTAR rats (male, 300 to 400 g, Charles River, Japan) were used for the elevated plus maze test. Two […] were bred per cage.\n(§1) Orexin-A (Peptide Institute Inc., Osaka, Japan) was dissolved in an artificial cerebrospinal fluid (aCSF: glucose 10 mM, KCl 2 mM, NaCl 115 mM, CaCl2 2.5 mM, MgSO4 1.2 mM, NaHCO3 25 mM, KH2PO4 2.2 mM; pH 7. 4) to prepare solutions at various concentrations (0.1 nmol/μl, 0.3 nmol/μl, 1.0 nmol/μl, 3.0 nmol/μl). The artificial cerebrospinal fluid was used alone as a negative control.\n(§2) A stainless-steel injection needle was used that can be inserted into the lateral ventricle to a point 0.5 mm deeper than the tip of the guide cannula for intracerebroventricularly administering an orexin-A solution. The amounts of orexin-A solution were 2 μl and 5 μl for mice and rats, respectively. A microsyringe (705N 50 μl, Hamilton, Nevada, USA) was connected to a reflux pump (CMA100, BAS Inc., Tokyo, Japan) for injection at a precisely constant rate (1 μl/min for mice and 2.5 μl/min for rats).\nThe following five subject groups were tested. […]\nAt the end of the test, the total time spent in the open arms was calculated for each test animal, and the results were expressed as “average time+SEM” for each test subject (see FIG. 2). […]"}, "C57BL/6NCrj mice [1]": {"test_system": "C57BL/6NCrj mice", "test": "light-dark exploration test, orexin-A (Example 1)", "format": "in vivo", "conditions": "for time spent in the light compartment, difference from the aCSF administration group: intracerebroventricular, mice", "protocol": "C57BL/6NCrj mice (male, 25 to 30 g, Charles River, Japan) were used for the light-dark exploration test. Ten mice were bred per cage.\nas §1, §2\nThe following four subject groups were tested.\nThe test apparatus consisted of two compartments, namely a dark compartment (depth 10 cm×width 15 cm×length 20 cm) and a light compartment (depth 20 cm×width 15 cm×length 20 cm). Specifically, the dark compartment was made using a black plastic material with a lid on top whereas the light compartment was made using a white plastic material with an open top. Both of the light and dark compartments were connected via a black plastic tunnel (depth 7 cm×width 10 cm×length 4.5 cm) that allows access to both compartments.\nThe illumination of the test room was set to 150 lux. The test animals were habituated to an illumination of 10 lux in another room for more than 3 hours before starting the test (except upon administration). This test was conducted between 13:00 to 16:00. […]\nAt the end of the test, the total time spent in the light compartment was calculated for each test animal, and the results were expressed as “average time+SEM” (see FIG. 1). […]"}, "C57BL/6NCrj mice [2]": {"test_system": "C57BL/6NCrj mice", "test": "elevated plus maze test, orexin-A (Example 2)", "format": "in vivo", "conditions": "1.0 nmol orexin-A, intracerebroventricular, vs aCSF administration group, p<0.05", "protocol": "C57BL/6NCrj mice (male, 25 to 30 g, Charles River, Japan) were used. Ten mice were bred per cage.\nas §1, with “7.4)” for “7. 4)”, “a solution” for “solutions”, “a predetermined concentration (1.0” for “various concentrations (0.1 nmol/μl, 0.3 nmol/μl, 1.0 nmol/μl, 3.0”\nA stainless-steel injection needle was used that can be inserted into the lateral ventricle at a point 0.5 mm deeper than the tip of the guide cannula for intracerebroventricular administration of the orexin-A solution. The amount of the orexin-A solution was 2 μl. A microsyringe (705N 50 μl, Hamilton, Nevada, USA) was connected to a reflux pump (CMA100, BAS Inc., Tokyo, Japan) for injection at a precisely constant rate (1 μl/min).\nThe following two subject groups were tested.\nThe elevated plus maze test was basically carried out according to the test procedure described in S. Pellow et al. (J. Neurosci. Methods, vol. 14 (1985), p-149-167). […]\nAt the end of the test, the total time spent in the open arms was calculated for each test animal, and the results were expressed as “average time+SEM” for each test subject (see FIG. 3). […]"}, "mouse": {"test_system": "mouse", "conditions": "intracerebroventricular administration to a mouse; cited from earlier work"}, "orexin receptor-2 (OX2R)": {"target": "T1, orexin receptor-2 (OX2R) (Homo sapiens, UniProt O43614)", "T1 sequence (O43614 1-444)": "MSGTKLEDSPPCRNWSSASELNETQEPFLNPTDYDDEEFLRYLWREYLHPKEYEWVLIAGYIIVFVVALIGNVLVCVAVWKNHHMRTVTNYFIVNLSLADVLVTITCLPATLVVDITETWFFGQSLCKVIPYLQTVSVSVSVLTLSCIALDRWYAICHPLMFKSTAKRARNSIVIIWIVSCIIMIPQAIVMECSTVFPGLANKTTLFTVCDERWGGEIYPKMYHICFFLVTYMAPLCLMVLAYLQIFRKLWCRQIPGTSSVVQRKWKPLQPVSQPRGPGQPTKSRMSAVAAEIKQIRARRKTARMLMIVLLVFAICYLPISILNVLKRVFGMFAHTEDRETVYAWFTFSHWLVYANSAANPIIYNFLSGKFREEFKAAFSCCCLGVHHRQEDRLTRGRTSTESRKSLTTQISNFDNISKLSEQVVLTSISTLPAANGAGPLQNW", "conditions": "orexin-A compared with orexin-B; cited from earlier work"}, "C57BL/6NCrj mice [3]": {"test_system": "C57BL/6NCrj mice", "test": "light-dark exploration test, SB-334867 (Example 3)", "format": "in vivo", "procedure": "Specifically, two types of solutions, 0.50 nmol/μl and 1.50 nmol/μl, were prepared. The artificial cerebrospinal fluid (aCSF) was used alone as a negative control.\nThe position of the inserted cannula was also confirmed in the same manner.\nThe following three subject groups were tested.\nThe test apparatus consisted of a dark compartment (depth 10 cm×width 15 cm length 20 cm) and a light compartment (depth 20 cm×width 15 cm×length 20 cm). Specifically, the dark compartment was made of a black plastic material with a lid on top whereas the light compartment was made of a white plastic material with an open top. Both of the light and dark compartments were connected via a black plastic tunnel (depth 7 cm×width 10 cm×length 4.5 cm) that allows access to both compartments.\nAt the end of the test, the total time spent in the light compartment was calculated for each test animal, and the results were expressed as “average time+SEM” for each test subject (see FIG. 4). […]"}},
  "note": "Ends that are not written are not given here.",
  "data": [
    {"molecule": "orexin-A: neuropeptide, endogenous orexin receptor ligand; 33 amino acids with two disulfide bonds; from Peptide Institute Inc. (QPLPDCCRQKTCSCRLYELLHGAGNHAAGILTL; disulfide (positions not given here); ends not checked; also: two disulfide bonds, pairing not given here; UniProt O43612 34-66, looked up)", "values": [
      {"measurement": "time spent in the open arms", "setting": "WISTAR rats", "result": "shortened volume-dependently"},
      {"measurement": "time spent in the light compartment, difference from the aCSF administration group", "setting": "C57BL/6NCrj mice [1]; 0.1 nmol orexin-A administration group", "result": "significant difference"},
      {"measurement": "time spent in the light compartment, difference from the aCSF administration group", "setting": "C57BL/6NCrj mice [1]; 1.0 nmol orexin-A administration group", "result": "significant difference"},
      {"measurement": "time spent in the light compartment", "setting": "C57BL/6NCrj mice [1]; intracerebroventricular administration to mice 15 minutes before test, 5 min test, vs aCSF", "result": "significantly shortened"},
      {"measurement": "time spent in the open arms (elevated plus maze test, FIG. 3)", "setting": "C57BL/6NCrj mice [2]", "result": "significantly shortened"},
      {"measurement": "stress-like behaviors such as face washing, grooming, searching and burrowing", "setting": "mouse", "result": "increases"}
    ]},
    {"molecule": "orexin-B: neuropeptide, endogenous orexin receptor ligand comprising 28 amino acids", "values": [
      {"measurement": "binding affinity of OX2R", "setting": "orexin receptor-2 (OX2R)", "result": "generally the same level"}
    ]},
    {"molecule": "Cc1nc2ccc(NC(=O)Nc3ccnc4cccnc34)cc2o1", "note": "[SB-334867, 1-(2-methylbenzoxazole 6-yl)-3-[1,5]naphthyridine-4-yl urea]", "values": [
      {"measurement": "time spent in the light compartment", "setting": "C57BL/6NCrj mice [3]; intracerebroventricular administration to mice, 1 nmol and 3 nmol, 15 minutes before test, 5 min test", "result": "lengthened time spent in the light compartment dosage-dependently"},
      {"measurement": "assessment result: action on anxiety", "setting": "C57BL/6NCrj mice [3]; light-dark exploration test, mice, intracerebroventricular", "result": "anxiogenic action"}
    ]}
  ]
}
